US6028107A, “Orthomolecular medical use of L-citrulline for vasoprotection, relaxative smooth muscle tone and cell protection” (priority 1997, dated 2000)
“Also recorded” adds a separate entry of the source.

Key:
[1] = tested on: glomerular hyperfiltration; conditions: long-term oral, marked amounts; cited from earlier work
[2] = cited from earlier work
[3] = rats, parenteral injection; cited from earlier work
endothelial c-NOS [4] = conditions: plasma L-arginine above normal fasting about 75 to 90 μM; cited from earlier work
spermatocytes = conditions: oral 4 to 20 grams daily; cited from earlier work
creatine biosynthesis = conditions: dietary, man; cited from earlier work
endothelial c-NOS [5] = conditions: L-glutamine 600 μM; above 10 μM to 1,000 μM and more L-arginine; cited from earlier work
uterine muscle strips = conditions: added to extracellular fluid; cited from earlier work
[6] = oral 3-gram single doses, healthy humans; cited from earlier work
[7] = tested on: endothelium-dependent vasodilation; conditions: infusion, hypercholesterolemia; cited from earlier work
[8] = tested on: purified endothelial c-NOS; conditions: purified enzyme in vitro; read-out: apparent Michaelis constant (Km); cited from earlier work
[9] = tested on: oligemic vasoconstriction; conditions: rats; cited from earlier work
platelet activity = conditions: cited from earlier work
human platelets = conditions: 300 μM extracellular; L-arginine 30 μM; cited from earlier work
migraine aura = conditions: inhalation of small amounts; cited from earlier work
muscle = conditions: oral supplementation daily; cited from earlier work
hippocampal brain tissue = conditions: extracellular creatine increased by 3 mM; cited from earlier work
[10] = Total bleeding time, forearm template method (Example 2); assay type: in vivo, human; conditions: after 4 weeks of 5.4 grams daily in 2 divided doses
Experimental: The same subject that was studied in Example 1 was studied by total bleeding time determinations before and during ingestion of daily doses of L-citrulline, in two divided subdoses. Forearm bleeding times were done by 3 to 5 mm cuts about 1 mm deep made perpendicular to the fold of the elbow during template methodology and a sphygmomanometer cuff maintained near 40 mm Hg pressure. Control bleeding times were 51/2 minutes. Bleeding time rose to 131/2 minutes after 2 days of ingestion of 8.5 grams daily. Bleeding time was prolonged at 13 minutes after 4 weeks of ingestion of 5.4 grams of L-citrulline daily in 2 divided doses.

[11] = intestinal-derived, portal venous blood; cited from earlier work
[12] = Plasma ultrafiltrate L-arginine level after oral L-citrulline (Example 1); assay type: in vivo, human
Experimental: A novel […] method for the quantitative assay of free L-arginine in blood plasma was developed. The method measures the color product from monosubstituted guanidines without and with L-arginase incubation to destroy the arginine and the potential guanido color product that would be derived from L-arginine. The photometric decrease in guanido color product measures specifically the concentration of L-arginine. The L-arginine methodology was applied to ultrafiltrates of blood plasma after ultrafiltrations of separated plasma samples were done at 4° Celsius.
Blood plasma levels after 9 to 10 hours of overnight fasting averaged 83.0±1.1 μM (mean±SD of 3 determinations). Two hours after ingestion of 3.0 grams of L-citrulline in capsular form, plasma L-arginine level rose by […] to 132.7 μM. Overnight fasting plasma levels of L-arginine measured 125.2, 98.1, 90.8, 114.2, and 120.0 μM after ingestion of L-citrulline for 6 days at 6.0 grams, for 13 days at 2.4 grams, for 6 days at 3.4 grams, for 7 days at 6.8 grams, and for 2 days at 8.5 grams, respectively, in 2 divided doses (morning and nightly).

[13] = plasma-borne; cited from earlier work
migraine pains = experiment: Migraine attack, oral L-citrulline capsules (Example 4); assay type: in vivo, human; conditions: 2.7 grams, again about 1 hour later, third dose 6 hours later
Experimental: […] Their body weight was 59 kg. The subject gave a history of migraine pains with and without aura for about 15 years. Currently, the migraine pains were recurring about once to a few times weekly. Their parent had experienced migraine headaches for many years.
Shortly after the onset of a severe headache attack, the subject ingested 2.7 grams of L-citrulline, followed by another 2.7 grams about 1 hour later. They ingested a third dose of the same amount 6 hours later.

[14] = Tolerability during the study of Example 1; assay type: in vivo, human
From the text: They remained on their usual regular diet and continued working during the study.

arterial injury = conditions: 2.25% in the drinking water, long-term; cited from earlier work

N=C(N)NCCC[C@H](N)C(=O)O [L-arginine]
glomerular hyperfiltration and abnormal filtration fraction hemodynamics [1]: prevents the glomerular hyperfiltration and abnormal filtration fraction hemodynamics
proteinuria [1]: ameliorates the proteinuria
time of peak plasma arginine level ([2]; 24.8 grams of L-arginine (30 grams of arginine hydrochloride)): about 1 hour
time to return to near fasting values ([2]; 24.8 grams of L-arginine): 3 h
peak plasma arginine relative to fasting values ([2]; 24.8 grams of L-arginine, fasting 90±6 μM): about 3.6 times
plasma half-life [3]: about 1 hour
endothelial nitric oxide production (endothelial c-NOS [4]): augments endothelial nitric oxide production
total sperm counts and motility rates (spermatocytes): may improve total sperm counts and motility rates
creatine biosynthesis and pools of creatine and phosphocreatine in muscle and nerve (creatine biosynthesis): leads to more creatine biosynthesis and slowly expansible pools of creatine and phosphocreatine
endothelial production of nitric oxide by c-NOS versus extracellular L-arginine (endothelial c-NOS [5]): directly dependent upon the extracellular concentrations of L-arginine above 10 μM to levels of 1,000 μM and more without apparent saturation of the enzyme
muscle quiescence (uterine muscle strips): muscle quiescence
muscle relaxation (uterine muscle strips): dose-dependent muscle relaxation
nitric oxide generation (uterine muscle strips): nitric oxide generation
plasma citrulline levels [6]: without a change in plasma citrulline levels
impaired endothelium-dependent vasodilation [7]: impaired endothelium-dependent vasodilation is corrected
Km [8]: ~6 µM
oligemic vasoconstriction following cortical spreading depression [9]: reduces the oligemic vasoconstriction

CC(=O)Oc1ccccc1C(=O)O [aspirin, acetylsalicylic acid]
total bleeding time (platelet activity; low-dose / small therapeutic doses orally): prolongs the total bleeding time; also recorded: prolonged
platelet activity (platelet activity; low-dose intake): inhibits platelet activity

NCCC[C@H](N)C(=O)O [L-ornithine]
effect on L-arginine uptake (human platelets): inhibitory

CCCCCON=O [amyl nitrite]
migraine aura (migraine aura): temporarily reversed migraine aura in some cases

CN(CC(=O)O)C(=N)N [creatine]
muscle fatigue with physical exercise (muscle): lessened muscle fatigue
muscle stores of free creatine and phosphocreatine (muscle): greater muscle stores of free creatine and phosphocreatine
neurocyte viabilities after anoxic periods (hippocampal brain tissue): greater neurocyte viabilities
neuronal free creatine and phosphocreatine levels (hippocampal brain tissue): large increases in neuronal free creatine and phosphocreatine levels

NC(=O)CC[C@H](N)C(=O)O [L-glutamine]
effect on L-arginine uptake (human platelets): inhibitory

NCCCC[C@H](N)C(=O)O [L-lysine]
effect on L-arginine uptake (human platelets): inhibitory

NC(=O)NCCC[C@H](N)C(=O)O [L-citrulline]
Bleeding time [10]: 13 min
liver uptake [11]: Without appreciable liver uptake
rise of plasma L-arginine level ([12]; 2 hours after single oral 3.0 grams, capsular form): 62.4%
elevation of blood plasma L-arginine versus ingestion of equivalent amounts of L-arginine ([12]; comparison with L-arginine as single amino acid or in protein meals): more efficient and longer lasting
blood plasma levels of L-arginine after overnight fasting 9 to 10 hours ([12]; daily dosage in two divided subdoses): greater blood plasma levels of L-arginine even after overnight fasting
blood plasma concentrations of free L-arginine ([12]; single oral doses of 3.0 grams or more, capsule form): promptly raised to much higher levels
blood-brain barrier passage [13]: readily passes the blood-brain barrier
migraine pain (migraine pains): markedly lessened in intensity and in duration
nausea during the migraine attack (migraine pains): Much less nausea
adverse symptoms or untoward signs [14]: No adverse symptoms or untoward signs were experienced

Cl.N=C(N)NCCC[C@H](N)C(=O)O [L-arginine hydrochloride]
increase of plasma arginine levels (arterial injury): about 2.6 times
neoendothelium-dependent arterial muscle relaxation (arterial injury): enhanced neoendothelium-dependent arterial muscle relaxation
thickening after arterial injury (arterial injury): reduced thickening
